The test system of test [1] is platelet aggregation in human whole blood. As to the kind of experiment: Anti-platelet inhibitor effects in microchannel, c85 g30 e85 100-100 μm format. The format is cell-based. To be noted: 10 mins pre-treatment, hirudin anti-coagulated whole blood, FIG. 22. The method, then:
(§1) Blood samples from subjects were taken via venisection of the antecubital vein using a 10 ml syringe fitted with a 19 guage needle containing 800 U/ml hirudin as anticoagulant.
(§2) Blood perfusion studies through the device were carried out using hiridin (800 U/ml) anticoagulated whole blood taken from consenting human donors. Whole blood samples were incubated at 37° C. for 10 minutes with the lipophylic membrane dye DiOC6 (1 μg/ml) or DiICl2 (1 μg/ml) to allow the cells to be more readily visualised through the device.
The micro-geometry device used in the present example has a contraction angle (θc) of 85°, an expansion angle (θe) of 85°, a gap width of 30 μm, a gap length of 15 μm and channel entry and exit width of 100 μm (c85 g30 e85 100-100 μm format).
The following anti-platelet drugs were used either alone or in combination: • 1. Hirudin: Human whole blood anti-coagulated with Hirudin (800 U/ml) as a control. • 2. Hirudin+MRS: Human (hirudin anti-coagulated) whole blood pre-treated for 10 mins with 100 μM of the P2Y1 adenosine-5′-diphosphate (ADP) antagonist N6-methyl-2′-deoxyadenosine-3′,5′-bisphosphate (MRS2179). • 3. Hirudin+2Me: Human (hirudin anti-coagulate) whole blood pre-treated for 10 mins with 10 μM of the P2Y12 (ADP) antagonist 2-methylthio-AMP (2MesAMP). • 4. […]

In test [2] the test system is platelet aggregation in human blood. To be noted: treated samples versus normal samples, specific microchannel geometries. From the text:
It will be further appreciated that the device and method of the invention can be used to assay the effectiveness of particular drugs or substances.

The subject of test [3] is platelet aggregation in hirudin-anticoagulated whole blood. As to the kind of experiment: Whole blood perfusion through step geometry micro-shear gradient device (c90 g10 e60 100-700 μm format), platelet aggregation traces. The test is classed as cell-based, human. The note with it: whole blood treated 10 minutes with 30 μg/ml prior to perfusion; input shear rate 1,800 s^-1; FIG. 11c. As to the method:
as §1, §2
FIG. 11a is a representative micrograph (40× magnification) sequence of human (hirudin anti-coagulated) blood perfusion through a micro-shear gradient device consisting of an in-flow (entry) width of 100 μm, a contraction angle (θc) of 90°, a gap height of 10 μm, an expansion angle (θe)) of 60°, and an expansion/exit width of 700 μm. The grey arrow denotes the point of initial aggregation [t=12 sec], the black arrow designates the limit of thrombus growth in the expansion zone (representative of n=3 experiments).
FIG. 11c comprises representative aggregation traces showing the response of whole blood perfusion through the PDMS microchannel device depicted in FIG. 11a. […]

Test [4] has as its system platelet aggregation in whole blood. Kind of test: Real-time epi-fluorescence imaging of DiOC6 labeled whole blood perfusion through the c60g20e60 microchannel. The format is cell-based, human. The note with it: 20 μg/ml; blood also pre-treated with apyrase, MRS2179, 2-MeSAMP, Indomethacin, hirudin; 16 μL/min, input strain rate 1,800 s-1. As to the method: as §1, §2
FIG. 20a represents real-time epi-fluorescence imaging of DiOC6 labeled whole blood perfusion at a constant flow rate of 16 μL/min (input strain rate=1,800 s−1) through the c60g20e60 geometric format over a 10 min timeframe, following pre-treatment for 10 minutes with the platelet inhibitors apyrase (0.02 U/ml), N6-methyl-2′-deoxyadenosine-3′,5′-bisphosphate (MRS2179 at 100 μM) and 2-methylthio-AMP (2-MeSAMP at 10 μM) to block ADP; Indomethacin (10 μM) to block TXA2; and hirudin (800 U/ml) to block thrombin. […] To investigate the platelet adhesion receptors mediating the aggregation response, whole blood samples were pretreated with the anti-integrin αIIbβ3 ab c7E3 (20 μg/ml) to block the platelet integrin αIIbβ3 or the anti-GPIb IgG Alma12 (50 μg/ml) to block platelet GPIb/V/IX engagement of VWF.

This note sets out measurements from patent US20120058500A1, “PLATELET AGGREGATION USING A MICROFLUIDICS DEVICE” (Monash University, priority 2009, published 2012).

Positions of bridges follow the written chain, without caps; N, C: chain ends. Non-standard residues stand in square brackets, D forms with d. Residues, ends and D or L forms follow the SMILES beside them. hArg = N=C(N)NCCCC[C@H](N)C(=O)O; Mpa = O=C(O)CCS

For the molecule `CNc1ncnc2c1ncn2[C@H]1C[C@H](OP(=O)(O)O)[C@@H](COP(=O)(O)O)O1` [MRS, N6-methyl-2′-deoxyadenosine-3′,5′-bisphosphate], in test [1] (100 μM, compared with the P2Y12 inhibitor), the “effect on the aggregation profile in the device” value was “much more marked effect”.

With `CSc1nc(N)c2ncn([C@@H]3O[C@H](COP(=O)(O)O)[C@@H](O)[C@H]3O)c2n1` [inhibitor of the P2Y12 (ADP) receptor, 2-methylthio-AMP], the “reduction in overall aggregation in the device” value in test [1] (10 μM) was determined as 50%.

On to `N=C(N)NCCCC[C@@H]1NC(=O)CCSSC[C@@H](C(N)=O)NC(=O)[C@@H]2CCCN2C(=O)[C@H](Cc2c[nH]c3ccccc23)NC(=O)[C@H](CC(=O)O)NC(=O)CNC1=O` [integrilin] ([Mpa][hArg]GDWPC-NH2; disulfide 1-7), for which the “platelet aggregation profile versus normal samples” value in test [2] is given as “different platelet aggregation profile”.

B1: c7E3 Fab: anti-integrin αIIbβ3 ab c7E3, used to block the platelet integrin αIIbβ3 (antibody, chains of the INN, looked up, V domains shown)
VH: EVQLQQSGTVLARPGASVKMSCEASGYTFTNYWMHWVKQRPGQGLEWIGAIYPGNSDTSYIQKFKGKAKLTAVTSTTSVYMELSSLTNEDSAVYYCTLYDGYYVFAYWGQGTLVTVSA
VL: EIVLTQSPVTLSVTPGDSVSLSCRASRDISNNLHWFQQTSHESPRLLIKYASQSMSGIPSRFSGSGSGTDFTLSINSVETEDFGMYFCQQTNSWPYTFGGGTKLEIK
modifications: Fab
In the case of B1, in test [3], the “initial recruitment at the stenosis apex” value is “markedly delayed” and the overall aggregation entry is listed as “suppressed”. Besides, the “platelet aggregation within the c60g20e60 geometry” value in test [4] is “completely inhibited”.
